Results on 15 molecules are retold here after patent US20200407393A1, “Medical Use” (priority 2018, published 2020).

Experiment [1] relates to WT pseudotyped virus (PSV) infection of U373 cells. In words: microbe, parasite or virus in culture. In kind it is cell-based. Conditions: for IC50: Human immunodeficiency virus 1, U373 MG, cells treated 6 h, washed; for Fold Change vs EFdA: fold change of the persistence index relative to EFdA; for Persistence Index: ratio of the IC50 determined at 48 and 0 h.
In experiment [2] the test system is WT pseudotyped virus (NL4-3 provirus with HIV gp160 envelope) in U373 cells. Kind of experiment: PSV assay (pseudotyped virus assay), WT. As to conditions: read-out: WT IC50.
Description: A pseudotyped virus assay (PSV) was used to assess the potency of the compounds. Replication defective virus was produced by co-transfection of a plasmid containing an NL4-3 provirus [containing a mutation in the envelope open reading frame (ORF) and a luciferase reporter gene replacing the nef ORF] and a CMV-promoter expression plasmid containing an ORF for various HIV gp160 envelope clones. The harvested virus was stored at −80 C in small aliquots and the titer of the virus measured to produce a robust signal for antiviral assays.
The PSV assay was performed by using U373 cells stably transformed to express human CD4, the primary receptor for HIV entry and either human CXCR4 or human CCR5 which are the co-receptors required for HIV entry as target cells for infection. […] This dose-range was applied to U373 cells and the pre-made pseudotyped virus added. The amount of luciferase signal produced after 3 days of culture was used to reflect the level of pseudotyped virus infection. […] IC50 values were determined from a 10 point dose response curve using 3-4-fold serial dilution for each compound, which spans a concentration range>1000 fold.
These values are plotted against the molar compound concentrations using the standard four parameter logistic equation:
y=((Vmax*x^n)/(K^n+x^n))+Y2 • where: • Y2=minimum y n=slope factor • Vmax=maximum y x=compound concentration [M] • K=EC50
For experiment [3], the system named is M184V pseudotyped virus in U373 cells. It counts as cell-based, HIV.
The mark [4] stands for this setting: infected immediately (0 h), read-out: WT IC50 at t = 0 h.
Where [5] appears, read: Human immunodeficiency virus 1, NL43, U373 MG, 72 h.
[6] abbreviates: Human immunodeficiency virus 1, NL43, U373 MG.
The mark [7] stands for this setting: Table 4, luciferase signal after 3 days of culture.
Setting [8] is: Table 5, mean of a greater number of data replicates.
The mark [9] stands for this setting: infected 48 h after removal of compound, read-out: WT IC50 at t = 48 h.

Like-named read-outs stand apart in the source and are kept apart here.

Consider `C#C[C@]1(CO)O[C@@H](n2cnc3c(N)nc(F)nc32)C[C@@H]1O` [EFdA, (2R,3S,5R)-5-(6-amino-2-fluoro-9H-purin-9-yl)-2-ethynyl-2-(hydroxymethyl)tetrahydrofuran-3-ol, reference compound], for which the IC50 (usually the concentration needed to halve the response being measured) in experiment [1] (setting [4]) turned out to be 7.4 nM. Besides, in experiment [1], the “Fold Change vs EFdA” value came out at 1.00 and the “Persistence Index” value stood at 42.87.
With `C#C[C@]1(COC(=O)CCCCCCCCCCCCC)O[C@@H](n2cnc3c(N)nc(F)nc32)C[C@@H]1O` [Example 1, ((2R,3S,5R)-5-(6-amino-2-fluoro-9H-purin-9-yl)-2-ethynyl-3-hydroxytetrahydrofuran-2-yl)methyl tetradecanoate], the concentration for half-maximal inhibition (IC50) in experiment [2] (setting [5]) is 2 nM; in experiment [2] (setting [6]) it was 1 nM; in experiment [3] (setting [7]), 12 nM; in experiment [3] (setting [8]), 10 nM; in experiment [1] (setting [9]), 89.1 nM; in experiment [1] (setting [4]) it was 2.5 nM. In experiment [1], the “Fold Change vs EFdA” value is recorded as 1.33. In addition, the “Persistence Index” value in experiment [1] stood at 35.22.
For the molecule `C#C[C@]1(COC(=O)C(CCC)CCC)O[C@@H](n2cnc3c(N)nc(F)nc32)C[C@@H]1O` [Example 4, ((2R,3S,5R)-5-(6-amino-2-fluoro-9H-purin-9-yl)-2-ethynyl-3-hydroxytetrahydrofuran-2-yl)methyl 2-propyl pentanoate], the IC50 amounted to 14 nM in experiment [2] (setting [5]); 20 nM in experiment [2] (setting [6]); 119 nM in experiment [3] (setting [7]); 111 nM in experiment [3] (setting [8]); 691 nM in experiment [1] (setting [9]); 21.1 nM in experiment [1] (setting [4]). In experiment [1], the “Fold Change vs EFdA” value turned out to be 1.31. Also, in experiment [1], the “Persistence Index” value amounted to 32.78.
For `C#C[C@]1(COC(=O)CCCCCCCCCCCCCCCCCCC)O[C@@H](n2cnc3c(N)nc(F)nc32)C[C@@H]1O` [Example 5, ((2R,3S,5R)-5-(6-amino-2-fluoro-9H-purin-9-yl)-2-ethynyl-3-hydroxytetrahydrofuran-2-yl)methyl icosanoate], the IC50 turned out to be 70 nM in experiment [2] (setting [5]); 67 nM in experiment [2] (setting [6]); 322 nM in experiment [3] (setting [7]); 333 nM in experiment [3] (setting [8]); 102 nM in experiment [1] (setting [9]); 51.7 nM in experiment [1] (setting [4]). The “Fold Change vs EFdA” value in experiment [1] was 23.90. Further, the “Persistence Index” value in experiment [1] is recorded as 1.97.
In the case of `C#C[C@]1(COC(=O)CCCCCCC/C=C\C/C=C\C/C=C\CC)O[C@@H](n2cnc3c(N)nc(F)nc32)C[C@@H]1O` [Example 6, (9Z,12Z,15Z)-((2R,3S,5R)-5-(6-amino-2-fluoro-9H-purin-9-yl)-2-ethynyl-3-hydroxytetrahydrofuran-2-yl)methyl octadeca-9,12,15-trienoate], the IC50 in experiment [2] (setting [5]) was found to be 4 nM; in experiment [2] (setting [6]), 4 nM; in experiment [3] (setting [7]), 24 nM; in experiment [3] (setting [8]), 21 nM; in experiment [1] (setting [9]), 180 nM; in experiment [1] (setting [4]), 3.7 nM. Besides, the “Fold Change vs EFdA” value in experiment [1] came to 0.75. In addition, the “Persistence Index” value in experiment [1] is reported as 56.90.
As to `C#C[C@]1(COC(=O)CCCCCCCC#CC)O[C@@H](n2cnc3c(N)nc(F)nc32)C[C@@H]1O` [Example 17, ((2R,3S,5R)-5-(6-amino-2-fluoro-9H-purin-9-yl)-2-ethynyl-3-hydroxytetrahydrofuran-2-yl)methyl undec-9-ynoate], the IC50 in experiment [2] (setting [6]) was 3 nM; in experiment [3] (setting [8]), 13 nM.
Taken in the same sequence, the figures for `C#C[C@]1(COC(=O)CCCCCCCC#CCCCCCCCC)O[C@@H](n2cnc3c(N)nc(F)nc32)C[C@@H]1O` [Example 18, ((2R,3S,5R)-5-(6-amino-2-fluoro-9H-purin-9-yl)-2-ethynyl-3-hydroxytetrahydrofuran-2-yl)methyl octadec-9-ynoate] were 2 nM and 14 nM.
Take `C#C[C@]1(COC(=O)C(C)(C)C)O[C@@H](n2cnc3c(N)nc(F)nc32)C[C@@H]1O` [Example 19, ((2R,3S,5R)-5-(6-amino-2-fluoro-9H-purin-9-yl)-2-ethynyl-3-hydroxytetrahydrofuran-2-yl)methyl pivalate]: the IC50 in experiment [2] (setting [6]) stood at 30 nM; in experiment [3] (setting [8]), 150 nM.
On to `C#C[C@]1(COC(=O)C(C)(C)CCC)O[C@@H](n2cnc3c(N)nc(F)nc32)C[C@@H]1O` [Example 20, ((2R,3S,5R)-5-(6-amino-2-fluoro-9H-purin-9-yl)-2-ethynyl-3-hydroxytetrahydrofuran-2-yl)methyl 2,2-dimethylpentanoate], for which the 50% inhibitory concentration (IC50) in experiment [2] (setting [6]) is 25 nM; in experiment [3] (setting [8]) it was 91 nM.
For `C#C[C@]1(COC(=O)C(CCCC)CCCCCC)O[C@@H](n2cnc3c(N)nc(F)nc32)C[C@@H]1O` (stereo partly drawn) [Example 21, ((2R,3S,5R)-5-(6-amino-2-fluoro-9H-purin-9-yl)-2-ethynyl-3-hydroxytetrahydrofuran-2-yl)methyl 2-butyloctanoate], in that order: 25 nM and 113 nM.
For `C#C[C@]1(COC(=O)C(CCCCCC)CCCCCCCC)O[C@@H](n2cnc3c(N)nc(F)nc32)C[C@@H]1O` (stereo partly drawn) [Example 22, ((2R,3S,5R)-5-(6-amino-2-fluoro-9H-purin-9-yl)-2-ethynyl-3-hydroxytetrahydrofuran-2-yl)methyl 2-hexyldecanoate], the concentration for half-maximal inhibition (IC50) in experiment [2] (setting [6]) was determined as 36 nM; in experiment [3] (setting [8]), 176 nM.
Taken in the same sequence, the figures for `C#C[C@]1(COC(=O)C(C)CCCCC)O[C@@H](n2cnc3c(N)nc(F)nc32)C[C@@H]1O` (stereo partly drawn) [Example 23, ((2R,3S,5R)-5-(6-amino-2-fluoro-9H-purin-9-yl)-2-ethynyl-3-hydroxytetrahydrofuran-2-yl)methyl 2-methylheptanoate] were 1 nM and 7 nM.
For `C#C[C@]1(COC(=O)CC(F)(F)F)O[C@@H](n2cnc3c(N)nc(F)nc32)C[C@@H]1O` [Example 24, ((2R,3S,5R)-5-(6-amino-2-fluoro-9H-purin-9-yl)-2-ethynyl-3-hydroxytetrahydrofuran-2-yl)methyl 3,3,3-trifluoropropanoate], in that order: 8 nM and 37 nM.
Taken in the same sequence, the figures for `C#C[C@]1(COC(=O)C(C)(C)C(F)(F)F)O[C@@H](n2cnc3c(N)nc(F)nc32)C[C@@H]1O` [Example 25, ((2R,3S,5R)-5-(6-amino-2-fluoro-9H-purin-9-yl)-2-ethynyl-3-hydroxytetrahydrofuran-2-yl)methyl 3,3,3-trifluoro-2,2-dimethylpropanoate] were 21 nM and 90 nM.
For “((2R,3S,5R)-5-(6-amino-2-fluoro-9H-purin-9-yl)-2-ethynyl-3-hydroxytetrahydrofuran-2-yl)methyl tetracosanoate [Example 16]”, the figures for the IC50 in experiment [2] (setting [8]) and in experiment [3] (setting [8]) were 2280 nM and 10700 nM, respectively.
